The assay deals with T1, recombinant hRIPK2 protein (kinase domain aa 1-299-His-tagged) (Homo sapiens, UniProt O43353).
T1 construct: kinase domain aa 1-299-His-tagged; purchased Life Technologies PR7829A
The assay can be described thus: RIPK2 AlphaLISA assay (displacement of bead-bound CZC-8004 from hRIPK2). The class given is binding. The note with it: recombinant hRIPK2 kinase domain 10 nM, 2 h at 23° C. A digest of the protocol: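 His-tagged kinase domain (10 nM, as diluted) was mixed with compound (0.8% DMSO), acceptor beads bearing the probe CZC-8004 and Ni2+ donor beads. After 2 h at 23 °C, AlphaLISA signal was read. Loss of signal reflects displacement of the probe from RIPK2.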
A general note: Bead proximity is the source of the signal in Alpha formats.

A value given as a limit tells only on which side of the number the result lay.

T1 sequence (O43353 1-299): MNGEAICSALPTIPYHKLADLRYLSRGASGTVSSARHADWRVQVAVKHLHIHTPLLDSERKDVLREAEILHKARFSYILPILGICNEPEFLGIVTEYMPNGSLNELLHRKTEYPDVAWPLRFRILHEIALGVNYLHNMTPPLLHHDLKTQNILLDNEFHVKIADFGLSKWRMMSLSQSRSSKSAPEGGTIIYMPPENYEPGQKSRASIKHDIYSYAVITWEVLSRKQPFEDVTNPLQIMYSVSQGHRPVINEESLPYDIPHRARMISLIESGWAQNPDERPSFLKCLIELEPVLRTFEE

As a reminder, the IC50 is the concentration that gives 50% inhibition. As to `COc1cc2cc(c1)-c1cnn3ccc(nc13)OC[C@@H]1C[C@@H](OC)C(=O)N1CC(C)N2` (stereo partly drawn) [Example 89, (12R,14S)-4,12-dimethoxy-8-methyl-16-oxa-7,10,20,21,24-pentaazapentacyclo[15.5.2.1^2,6.0^1°,^14.0^2°,^23]pentacosa-1(23),2,4,6(25),17(24),18,21-heptaen-11-one], the IC50 is less than 10 nM.

Consider `COCCO[C@@H]1C[C@H]2COc3nc4c(cnn4cc3C)-c3cc(cc(OC)c3)NCCN2C1=O` [Example 115, (12R, 14S)-4-methoxy-12-(2-16-oxa-7,10,20,21,24-pentaazapentacyclo[15.5.2. 1^2,6.0^10,^14.0^20,^23]pentacosa-1(23),2,4,6(25),17(24),18, 21-heptaen-11-one], for which the concentration for half-maximal inhibition (IC50) is less than 10 nM. Under `CCO[C@@H]1C[C@H]2COc3ccn4ncc(c4n3)-c3cc(F)cc(c3)NCCN2C1=O` [Example 17, (12R,14S)-12-ethoxy-4-fluoro-16-oxa-7,10,20,21,24-pentaazapentacyclo[15.5.2.1^2,6.0^10,^14.0^20,^23]pentacosa-1(23),2,4,6(25),17(24),18,21-heptaen-11-one] stands less than 10 nM; under `CO[C@@H]1C[C@H]2COc3ccn4ncc(c4n3)-c3cc(cc(C(=O)NOC(C)C)c3)NCCN2C1=O` [Example 107, (12R,14S)-12-methoxy-11-oxo-N-(propan-2-yloxy)-16-oxa-7,10,20,21,24-pentaazapentacyclo[15.5.2.1^2,6.0^10,^14.0^20,^23]pentacosa-1(23),2,4,6(25),17(24),18,21-heptaene-4-carboxamide], 10 to 100 nM; under `CCO[C@@H]1C[C@H]2COc3ccn4ncc(c4n3)-c3cc(cc(C(=O)N(C)C)c3)NCCN2C1=O` [Example 58, (12R,14S)-12-ethoxy-N,N-dimethyl-11-oxo-16-oxa-7,10,20,21,24-pentaazapentacyclo[15.5.2.1^2,6.0^10,^14.0^20,^23]pentacosa-1(23),2(25),3,5,17(24),18,21-heptaene-4-carboxamide], less than 10 nM. Under `CO[C@@H]1C[C@H]2COc3ccn4ncc(c4n3)-c3cc(cc(OCC4CC4)c3)NCCN2C1=O` [Example 45, (12R,14S)-4-(cyclopropylmethoxy)-12-methoxy-16-oxa-7,10,20,21,24-pentaazapentacyclo[15.5.2.1^2,6.0^10,^14.0^20,^23]pentacosa-1(23),2,4,6(25),17(24),18,21-heptaen-11-one] stands 100 to 11000 nM; under `[2H]C([2H])([2H])Oc1cc2cc(c1)-c1cnn3ccc(nc13)OC[C@@H]1C[C@@H](OC)C(=O)N1CCN2` [Example 52, (12R,14S)-4-(^2H3)methoxy-12-methoxy-16-oxa-7,10,20,21,24-pentaazapentacyclo[15.5.2.1^2,6.0^10,^14.0^20,^23]pentacosa-1(23),2,4,6(25),17(24),18,21-heptaen-11-one], less than 10 nM; under `O=C1[C@H](F)C[C@H]2COc3ccn4ncc(c4n3)-c3cc(F)cc(c3)NCCN12` [Example 26, (12R,14S)-4,12-difluoro-16-oxa-7,10,20,21,24-pentaazapentacyclo[15.5.2.1^2,6.0^10,^14.0^20,^23]pentacosa-1(23),2,4,6(25),17(24),18,21-heptaen-11-one], less than 10 nM.

`C#Cc1cc2cc(c1)-c1cnn3cc(C)c(nc13)OC[C@@H]1C[C@@H](OC)C(=O)N1CCN2` [Example 71]: the IC50 was less than 10 nM. Turning to `CO[C@@H]1C[C@H]2COc3ccn4ncc(c4n3)-c3cc(cc(-n4cccn4)c3)NCCN2C1=O` [Example 41, (12R,14S)-12-methoxy-4-(1H-pyrazol-1-yl)-16-oxa-7,10,20,21,24-pentaazapentacyclo[15.5.2.1^2,6.0^10,^14.0^20,^23]pentacosa-1(23),2(25),3,5,17(24),18,21-heptaen-11-one], the IC50 was less than 10 nM.

These data come from US12630563B2, “Macrocyclic RIP2-kinase inhibitors” (Oncodesign S.A., priority 2020, dated 2026).
